Several values for one entry are separate records, joined by “and”; a condition that tells them apart may be missing. Identical values can stand only once. Like-named read-outs stand apart in the source and are kept apart here. Each block holds one compound with its values, some of them ahead of it.
Experiments:
METTL3/METTL14 [1] = target: T1, METTL3/METTL14 (Homo sapiens, UniProt Q86U44); experiment: Thermal shift assay; type: binding; conditions: vs DMSO control
T1 construct: made in house; host or cells: Sf9 insect cells (baculovirus)
Experimental: (§1) METTL1 mediates the formation of N7-methylguanine in a subset of RNA species, such as tRNAs, mRNAs, and microRNAs, whereas METTL16 is able to N6-methylate a subset of mRNAs and U6 small nuclear RNAs.[23],[24] The co-product of methyl transfer catalysis, S-adenosyl-L-homocysteine (SAH), was used as a positive control in the thermal shift assay. […] Compound 54 at 200 μM was able to shift the melting curve of METTL3/METTL14 by 1.8 °C compared to the DMSO control (Figure S4).
(§2) The protein sample was buffered in 25 mM HEPES (pH 7.4) and 150 mM NaCl and assayed in a 96-well plate at a final concentration of 2 μM in 20 μL volume. The SYPRO Orange dye was added as a fluorescence probe at a dilution of 1:1000. The compound 54 concentrations tested were 10, 50, 100, and 200 μM, while the SAH concentrations tested were 100, 500, 1000, and 2000 μM. The temperature was raised with a step of 0.5 °C starting from 20 to 80 °C, and fluorescence readings were taken at each interval. The reported values (ΔTm) are calculated as the difference between the transition midpoints of an individual sample and the average of the reference wells (containing the protein and the DMSO only) in the same plate. The DMSO concentration was kept at 1% (v/v).

METTL1 = METTL1 (Homo sapiens, UniProt Q9UBP6); experiment: Thermal shift assay; type: binding
Experimental: as §1, §2

METTL16 = target: T2, METTL16 (Homo sapiens, UniProt Q86W50); experiment: Thermal shift assay; type: binding
T2 sequence (Q86W50 1-562): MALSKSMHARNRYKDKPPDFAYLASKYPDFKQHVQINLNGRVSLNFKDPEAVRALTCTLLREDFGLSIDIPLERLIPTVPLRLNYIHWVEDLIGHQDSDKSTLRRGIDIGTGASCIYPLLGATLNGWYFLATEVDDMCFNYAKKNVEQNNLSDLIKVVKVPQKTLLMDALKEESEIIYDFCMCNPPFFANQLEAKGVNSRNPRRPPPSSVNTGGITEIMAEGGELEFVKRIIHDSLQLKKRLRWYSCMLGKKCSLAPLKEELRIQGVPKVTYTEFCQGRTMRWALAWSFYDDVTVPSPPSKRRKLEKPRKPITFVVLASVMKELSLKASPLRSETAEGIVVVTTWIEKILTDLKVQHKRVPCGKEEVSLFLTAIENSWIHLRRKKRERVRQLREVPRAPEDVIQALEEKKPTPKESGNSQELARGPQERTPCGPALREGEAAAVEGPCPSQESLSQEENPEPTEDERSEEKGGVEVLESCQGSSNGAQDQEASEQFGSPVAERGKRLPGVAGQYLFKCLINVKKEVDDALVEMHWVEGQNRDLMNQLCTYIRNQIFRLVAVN
Experimental: as §1, §2

MOLM-13 cells = experiment: Antiproliferative activity / cytotoxicity (GI50), CellTiter-Glo; type: cell-based
Experimental: We then decided to evaluate the cellular potency of inhibitor 54. The antiproliferative activity on MOLM-13, which is an acute myeloid leukemia cell line, was measured using a previously published protocol with a 3-day incubation time.[10]
MOLM-13 cells were cultured in RPMI 1640 medium containing 10% Gibco FBS and 1% penicillin/streptomycin (complete medium) in 5% CO2 at 37 °C in a humidified incubator, with maintained cell densities at 0.6–2 × 10^6 cells/mL.
Cells were seeded in white clear-bottom 96-well plates at a density of 2 × 10^4 cells/well in 50 μL of the complete RPMI medium and treated with 50 μL increasing concentrations of compound 54 dissolved in DMSO (final concentration of compounds 1.25–160 μM) or DMSO only (0.5% (v/v)) as a negative control and incubated for 72 h at 37 °C with 5% CO2. Cell viability was determined using a CellTiter-Glo luminescent cell viability assay (Promega G7570) based on the detection of ATP according to the manufacturer’s instructions. […] The luminescence was recorded using a Tecan Infinite […] M1000 microplate reader from the top. The background luminescence value was obtained from wells containing the CellTiter-Glo reagent and medium without cells. Cell viability curves were plotted in GraphPad Prism 9 and fitted with nonlinear regression, from which GI50 values were determined.

METTL3/METTL14 [2] = target: T1, METTL3/METTL14; experiment: METTL3 enzymatic inhibition assay by homogeneous time-resolved fluorescence (HTRF); type: biochemical; conditions: for IC50: HTRF assay
Experimental: Compound potencies were evaluated by using a previously reported METTL3 inhibition assay. […] Tested compounds that inhibit METTL3 decrease the m^6A level and thus reduce the HTRF signal. The biochemical assay was performed, as described previously.[19] The IC50 values derived from fitting a dose–response curve to the data using nonlinear regression. The IC50 values are given as an average of at least two independent measurements for each compound in the text.

[3] = tested on: m^6A/A level in MOLM-13 cells; set-up: method as in PMID 34237194; conditions: read-out: IC50 for m^6A/A reduction; cited from earlier work
[4] = SAH at 2000 μM, vs DMSO control
[5] = racemic mixture, read-out: IC50

T1 sequence (Q86U44 whole entry): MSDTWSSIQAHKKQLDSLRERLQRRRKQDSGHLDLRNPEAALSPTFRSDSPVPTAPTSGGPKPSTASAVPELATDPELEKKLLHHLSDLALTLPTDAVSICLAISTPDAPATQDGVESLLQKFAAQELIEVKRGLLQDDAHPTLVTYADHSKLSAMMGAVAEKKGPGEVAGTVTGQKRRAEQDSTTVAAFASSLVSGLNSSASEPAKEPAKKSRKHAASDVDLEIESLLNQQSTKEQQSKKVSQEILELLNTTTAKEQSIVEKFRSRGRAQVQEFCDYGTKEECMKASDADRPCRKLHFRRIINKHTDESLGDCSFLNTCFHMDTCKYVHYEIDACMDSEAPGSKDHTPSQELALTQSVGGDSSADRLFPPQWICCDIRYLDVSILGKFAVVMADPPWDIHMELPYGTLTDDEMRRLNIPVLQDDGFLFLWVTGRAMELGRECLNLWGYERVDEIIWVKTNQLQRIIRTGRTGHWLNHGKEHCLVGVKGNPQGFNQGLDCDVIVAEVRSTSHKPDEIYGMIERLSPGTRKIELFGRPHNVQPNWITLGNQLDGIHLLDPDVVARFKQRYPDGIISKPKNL
T1 sequence (Q9HCE5 whole entry partner): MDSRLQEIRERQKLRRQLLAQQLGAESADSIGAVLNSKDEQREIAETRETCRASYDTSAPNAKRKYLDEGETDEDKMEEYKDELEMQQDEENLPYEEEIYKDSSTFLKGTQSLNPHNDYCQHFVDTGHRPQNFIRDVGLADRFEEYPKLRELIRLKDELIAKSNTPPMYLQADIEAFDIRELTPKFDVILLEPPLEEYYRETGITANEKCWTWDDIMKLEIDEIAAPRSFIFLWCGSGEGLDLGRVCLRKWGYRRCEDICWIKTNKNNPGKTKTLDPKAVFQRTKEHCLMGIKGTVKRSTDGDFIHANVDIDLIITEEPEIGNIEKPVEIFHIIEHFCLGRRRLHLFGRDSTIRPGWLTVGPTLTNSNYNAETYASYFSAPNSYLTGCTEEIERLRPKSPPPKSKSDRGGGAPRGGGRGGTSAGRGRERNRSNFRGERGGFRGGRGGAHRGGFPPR
Sequence of METTL1 (Q9UBP6 whole entry, species assumed): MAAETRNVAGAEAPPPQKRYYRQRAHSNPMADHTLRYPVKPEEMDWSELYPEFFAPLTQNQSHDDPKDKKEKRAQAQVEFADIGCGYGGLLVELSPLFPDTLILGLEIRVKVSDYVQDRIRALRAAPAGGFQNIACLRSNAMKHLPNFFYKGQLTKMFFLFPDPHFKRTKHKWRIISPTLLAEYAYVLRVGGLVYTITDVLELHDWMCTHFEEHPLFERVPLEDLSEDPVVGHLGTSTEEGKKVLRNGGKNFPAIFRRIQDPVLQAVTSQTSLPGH

Structure (SMILES): Nc1ncnc2c1ncn2[C@@H]1O[C@H](CSCC[C@H](N)C(=O)O)[C@@H](O)[C@H]1O [SAH, S-adenosyl-L-homocysteine, reference compound]
ΔTm (METTL3/METTL14 [1]; SAH at 2000 μM): 4.05 °C
ΔTm (METTL1; [4]): 8.75 °C
ΔTm (METTL16; [4]): 2.5 °C

Structure (SMILES): CC(C)C1N(Cc2ccc3c(NCC4(O)CCCN(c5cc(NCc6ccccc6)ncn5)C4)cccc3c2)CC12CCC2 (stereo not drawn) [compound 54, 1-(6-(benzylamino)pyrimidin-4-yl)-3-(((6-((1-isopropyl-2-azaspiro[3.3]heptan-2-yl)methyl)naphthalen-1-yl)amino)methyl)piperidin-3-ol]
GI50 (MOLM-13 cells; Homo sapiens, MOLM-13, 3-day (72 h) incubation, average of two biological replicates): 6 µM
factor by which cellular GI50 is higher than biochemical IC50 (MOLM-13 cells; MOLM-13 GI50 vs HTRF IC50): about 100
IC50 (METTL3/METTL14 [2]; [5]): 0.054 µM
fold improvement in affinity (IC50) vs compound 46 (METTL3/METTL14 [2]; matched pair 46:54): 6.7 fold
ΔTm at 200 µM (METTL3/METTL14 [1]; compound at 200 μM, read-out: ΔTm (shift of melting curve)): 1.8 °C
ΔTm (shift of melting curve) (METTL1; compound up to 200 μM): No shift
ΔTm (shift of melting curve) (METTL16; compound up to 200 μM): No shift

Structure (SMILES): CC(C)C1N(Cc2ccc(C(=O)NCC3(O)CCCN(c4cc(NCc5ccccc5)ncn4)C3)cc2)CC12CCC2 (stereo not drawn) [compound 30]
IC50 (METTL3/METTL14 [2]; [5]): 0.13 µM

Structure (SMILES): CNc1cc(N2CCCC(O)(CNC(=O)c3ccc(CN4CCC(C)(C)CC4)cc3)C2)ncn1 (stereo not drawn) [compound 4]
IC50 (METTL3/METTL14 [2]; [5]): 8.2 µM
fold improvement in affinity (IC50) vs compound 1 (METTL3/METTL14 [2]; relative to hit compound 1): 50 fold and 52.4 fold

Structure (SMILES): CC1(C)CCN(Cc2ccc(C(=O)NCC3(O)CCCN(c4cc(NC(C)(C)c5ccccc5)ncn4)C3)cc2)CC1 (stereo not drawn) [compound 14]
IC50 (METTL3/METTL14 [2]; [5]): 31 µM

Structure (SMILES): CC1(C)CCN(Cc2ccc(C(=O)NCC3(O)CCCN(c4cc(NCc5ccoc5)ncn4)C3)cc2)CC1 (stereo not drawn) [compound 11]
IC50 (METTL3/METTL14 [2]; [5]): > 10 µM

Structure (SMILES): CC(C)C1(O)CN(Cc2ccc(C(=O)NCC3(O)CCCN(c4cc(NCc5ccccc5)ncn4)C3)cc2)C1 (stereo not drawn) [compound 23]
IC50 (METTL3/METTL14 [2]; [5]): 15 µM

Structure (SMILES): CC1(C)CCN(Cc2ccc(C(=O)NC[C@]3(O)CCCN(c4cc(NCc5ccccc5)ncn4)C3)c(O)c2)CC1 [UZH1a]
IC50 [3]: 4.6 µM

Structure (SMILES): CC1(O)CCN(Cc2ccc(C(=O)NCC3(O)CCCN(c4cc(NCc5ccccc5)ncn4)C3)cc2)CC1 (stereo not drawn) [compound 24]
IC50 (METTL3/METTL14 [2]; [5]): 8.4 µM

Structure (SMILES): CCCCC1(C)CCN(Cc2ccc(C(=O)NCC3(O)CCCN(c4cc(NCc5ccccc5)ncn4)C3)cc2)CC1 (stereo not drawn) [compound 19]
IC50 (METTL3/METTL14 [2]; [5]): 5.5 µM

Structure (SMILES): CNc1cc(N2CCCC(O)(CNC(=O)c3ccc(CN4CCC(C)(CN)CC4)cc3)C2)ncn1 (stereo not drawn) [compound 8]
IC50 (METTL3/METTL14 [2]; [5]): 32 µM

Structure (SMILES): CC1(C)CCN(Cc2ccc(C(=O)NCC3(O)CCCN(c4cc(NCc5ccccc5)ncn4)C3)cn2)CC1 (stereo not drawn) [compound 45]
IC50 (METTL3/METTL14 [2]; [5]): 10 µM

Structure (SMILES): CC1CCN(Cc2ccc(C(=O)NCC3(O)CCCN(c4cc(NCc5ccccc5)ncn4)C3)cc2)C2CCCCC12 (stereo not drawn) [compound 41]
IC50 (METTL3/METTL14 [2]; [5]): 12 µM

Structure (SMILES): CC1(C)CCN(Cc2ccc(C(=O)NCC3(O)CCCN(c4cc(NCc5cccc6ccccc56)ncn4)C3)cc2)CC1 (stereo not drawn) [compound 15]
IC50 (METTL3/METTL14 [2]; [5]): 0.77 µM
fold improvement in affinity (IC50) vs compound 4 (METTL3/METTL14 [2]; relative to reference compound 4): 10 fold

Structure (SMILES): CNc1cc(N2CCCC(O)(CNC(=O)c3ccc(CN4CCC(C)CC4)cc3)C2)ncn1 (stereo not drawn) [compound 3]
IC50 (METTL3/METTL14 [2]; [5]): 16 µM

Structure (SMILES): CCCN(Cc1ccc(C(=O)NCC2(O)CCCN(c3cc(NCc4ccccc4)ncn3)C2)cc1)C1CCCC1 (stereo not drawn) [compound 37]
IC50 (METTL3/METTL14 [2]; [5]): > 10 µM

Structure (SMILES): O=C(NCC1(O)CCCN(c2cc(NCc3ccccc3)ncn2)C1)c1ccc(CN2CC3(CCC3)C2)cc1 (stereo not drawn) [compound 29]
IC50 (METTL3/METTL14 [2]; R isomer, read-out: IC50 (µM) R): 0.53 µM
IC50 (METTL3/METTL14 [2]; S isomer, read-out: IC50 (µM) S): 1.3 µM
IC50 (METTL3/METTL14 [2]; [5]): 1.6 µM
S/R Ratio (METTL3/METTL14 [2]; ratio of IC50 of S isomer to R isomer): 2.5

Further compounds by falling IC50 (METTL3/METTL14 [2]; [5]), results first:

IC50 (METTL3/METTL14 [2]; [5]): 60 µM
Structure (SMILES): CC1(C)CCN(CCCCC(=O)NCC2(O)CCCN(c3cc(NCc4ccccc4)ncn3)C2)CC1 (stereo not drawn) [compound 49]

IC50 (METTL3/METTL14 [2]; [5]): 42 µM
Structure (SMILES): CNc1cc(N2CCCC(O)(CNC(=O)c3ccc(CN4CCC(C)(N)CC4)cc3)C2)ncn1 (stereo not drawn) [compound 7]

IC50 (METTL3/METTL14 [2]; [5]): 23 µM
Structure (SMILES): CC1(F)CC12CCN(Cc1ccc(C(=O)NCC3(O)CCCN(c4cc(NCc5ccccc5)ncn4)C3)cc1)CC2 (stereo not drawn) [compound 22]

IC50 (METTL3/METTL14 [2]; [5]): 23 µM
Structure (SMILES): CC(F)C1CCN(Cc2ccc(C(=O)NCC3(O)CCCN(c4cc(NCc5ccccc5)ncn4)C3)cc2)CC1 (stereo not drawn) [compound 21]

IC50 (METTL3/METTL14 [2]; [5]): 17.6 µM
Structure (SMILES): CC1(CCO)CCN(Cc2ccc(C(=O)NCC3(O)CCCN(c4cc(NCc5ccccc5)ncn4)C3)cc2)CC1 (stereo not drawn) [compound 20]

IC50 (METTL3/METTL14 [2]; [5]): 8.4 µM
Structure (SMILES): O=C(NCC1(O)CCCN(c2cc(NCc3ccccc3)ncn2)C1)c1ccc(CN2CCCC3CCCCC32)cc1 (stereo not drawn) [compound 42]

IC50 (METTL3/METTL14 [2]; [5]): 2.9 µM
Structure (SMILES): CC1(C)CCN(Cc2ccc3nc(CC4(O)CCCN(c5cc(NCc6ccccc6)ncn5)C4)[nH]c3c2)CC1 (stereo not drawn) [compound 47]

IC50 (METTL3/METTL14 [2]; [5]): 1.1 µM
Structure (SMILES): CSc1cc(CN2CCC(C)(C)CC2)ccc1C(=O)NCC1(O)CCCN(c2cc(NCc3ccccc3)ncn2)C1 (stereo not drawn) [compound 44]

IC50 (METTL3/METTL14 [2]; [5]): 0.84 µM
Structure (SMILES): O=C(NCC1(O)CCCN(c2cc(NCc3ccccc3)ncn2)C1)c1ccc(CN2CC3(CCC3)C2C2CC2)cc1O (stereo not drawn) [compound 53]

Source: paper PMC10436262, “Structure-Based Design of Inhibitors of the m^6A-RNA Writer Enzyme METTL3” (ACS Bio & Med Chem Au, 2023)
